# Results taken from patent US7790771B1, “Use of tosylchloramide(s) for treating disease of the skin, mucous membrane, organs and tissues” (Engelhard Arzneimittel GmbH & Co., priority 1999, dated 2010).
# Assay: Treatments of Example 5 repeated with corticoid-free bases containing only chloramine T
# Type: in vivo
# Conditions: powder added to the bath water
# Description: Instead of adhesive salve Volon A with added chloramine T, a normal cooling salve was prepared—“unguentum leniens” which merely contained chloramine T-powder (2% by weight) as active ingredient, but no corticoid. The success described under Example 5 was the same.
smiles,measurement,value
"Cc1ccc(S(=O)(=O)NCl)cc1.[Na] [chloramine T, tosylchloramide-sodium]",treatment results compared with Example 5,comparable results
